Target: human RORgammaT-Ligand Binding Domain (LBD) (Homo sapiens (Human), UniProt P51449)
Test: RORγ-Ligand Binding Domain TR-FRET assay (co-activator peptide SRC1_2 recruitment)
Type: biochemical
Conditions: Fret IC50 (nM), HIS-tagged RORγ-LBD 3 nM, biotinylated SRC1 LXXLL peptide 100 nM, incubated overnight at 4° C., 665 nm/615 nm signal quotient
Text: Activation of RORgammaT activity can be measured using, e.g., biochemical TR-FRET assay. In such an assay, interaction of cofactor-derived peptides with human RORgammaT-Ligand Binding Domain (LBD) can be measured.
To identify novel antagonists of RORgammaT, an assay was developed which employs the interaction of RORgammaT with its co-activator peptide SRC1_2. […] The RORγ-Ligand Binding Domain TR-FRET Assay was run according to the following protocol.
HIS-tagged RORγ-LBD protein was expressed in SF9 cells using a baculovirus expression system. The RORγ-LBD protein was purified by glutathione sepharose chromatography. Separately, SF9 cells not expressing any recombinant protein were lysed and the lysate was added to the purified RORγ-LBD at 0.25 μl lysate (from 10,000 SF9 cells)/nM purified protein. The mixture was then diluted in assay buffer (50 mM Tris pH 7.0, 50 mM KCl, 1 mM EDTA, 0.1 mM DTT) to obtain RORγ-LBD final concentration of 3 nM in 384-well assay plate.
Compounds to be tested were injected to the assay plate using Acoustic Droplet Ejection technology by Echo 550 liquid handler (Labcyte, Calif.).

Chain of human RORgammaT-Ligand Binding Domain (LBD) (P51449 269-508): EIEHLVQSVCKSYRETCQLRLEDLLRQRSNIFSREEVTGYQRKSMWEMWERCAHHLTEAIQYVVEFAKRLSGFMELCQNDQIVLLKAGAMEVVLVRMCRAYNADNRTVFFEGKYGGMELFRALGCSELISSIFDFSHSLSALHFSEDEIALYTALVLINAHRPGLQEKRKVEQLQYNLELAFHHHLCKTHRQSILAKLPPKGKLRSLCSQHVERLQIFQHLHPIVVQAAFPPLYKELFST

| Compound | IC50 [nM] |
| --- | --- |
| CC1(C)C=C(c2nn(C(=O)c3c(Cl)cccc3C(F)(F)F)c3cccc(F)c23)CCC1C(=O)O (racemic) [Example 10A, (R and S)-4-(1-(2-chloro-6-(trifluoromethyl)benzoyl)-4-fluoro-1H-indazol-3-yl)-2,2-dimethylcyclohex-3-enecarboxylic acid] | 343 |
| CC1(C)CC(c2nn(C(=O)c3c(Cl)cccc3C(F)(F)F)c3cccc(F)c23)=CCC1C(=O)O (racemic) [Example 10B, (R and S) 4-(1-(2-chloro-6-(trifluoromethyl)benzoyl)-4-fluoro-1H-indazol-3-yl)-6,6-dimethylcyclohex-3-enecarboxylic acid] | 96 |

Same assay, conditions: HIS-tagged RORγ-LBD 3 nM, biotinylated SRC1 LXXLL peptide 100 nM, incubated overnight at 4° C., 665 nm/615 nm signal quotient; read-out: Fret IC50

| Compound | IC50 [nM] |
| --- | --- |
| CC1CC(C(=O)O)CC=C1c1nn(C(=O)c2c(Cl)cccc2C(F)(F)F)c2cccc(F)c12 (racemic) [Example 12A, 4-(1-(2-chloro-6-(trifluoromethyl)benzoyl)-4-fluoro-1H-indazol-3-yl)-5-methylcyclohex-3-enecarboxylic acid] | 54 |
| COC1CN(C(=O)c2ccc3c(C4=CCC(C(=O)O)CC4)nn(C(=O)c4c(Cl)cccc4C4CC4)c3c2)C1 (single isomer, unassigned) [Example 2A, (R or S)-4-(1-(2-chloro-6-cyclopropylbenzoyl)-6-(3-methoxyazetidine-1-carbonyl)-1H-indazol-3-yl)cyclohex-3-enecarboxylic acid] | 2 |
| COC1CN(C(=O)c2ccc3c(C4=CCC(C(=O)O)CC4)nn(C(=O)c4c(Cl)cccc4C4CC4)c3c2)C1 (single isomer, unassigned) [Example 2B, (S or R)-4-(1-(2-chloro-6-cyclopropylbenzoyl)-6-(3-methoxyazetidine-1-carbonyl)-1H-indazol-3-yl)cyclohex-3-enecarboxylic acid] | 2 |
| COC1CN(C(=O)c2ccc3c(C4=CC[C@](C)(C(=O)O)CC4)nn(C(=O)c4c(Cl)cccc4C4CC4)c3c2)C1 (single isomer, unassigned) [Example 2C, (R or S)-4-(1-(2-chloro-6-cyclopropylbenzoyl)-6-(3-methoxyazetidine-1-carbonyl)-1H-indazol-3-yl)-1-methylcyclohex-3-enecarboxylic acid] | 4 |
| COC1CN(C(=O)c2ccc3c(C4=CC[C@@](C)(C(=O)O)CC4)nn(C(=O)c4c(Cl)cccc4C4CC4)c3c2)C1 (single isomer, unassigned) [Example 2D, (S or R)-4-(1-(2-chloro-6-cyclopropylbenzoyl)-6-(3-methoxyazetidine-1-carbonyl)-1H-indazol-3-yl)-1-methylcyclohex-3-enecarboxylic acid] | 5 |
| CN(C)C(=O)c1ccc2c(C3=CCC(C(=O)O)CC3)nn(C(=O)c3c(Cl)cccc3C(F)(F)F)c2c1 (stereo not drawn) [Example 1A, 4-(1-(2-chloro-6-(trifluoromethyl)benzoyl)-6-(dimethylcarbamoyl)-1H-indazol-3-yl)cyclohex-3-enecarboxylic acid] | 18 |
| O=C(NCCO)c1ccc2c(C3=CCC(C(=O)O)CC3)nn(C(=O)c3c(Cl)cccc3C(F)(F)F)c2c1 (stereo not drawn) [Example 1D, 4-(1-(2-chloro-6-(trifluoromethyl)benzoyl)-6-(2-hydroxyethylcarbamoyl)-1H-indazol-3-yl)cyclohex-3-enecarboxylic acid] | 774 |
| CC1(C(=O)O)CC=C(c2nn(C(=O)c3c(Cl)cccc3C(F)(F)F)c3cccnc23)CC1 (stereo not drawn) [Example 1F, 4-(1-(2-chloro-6-(trifluoromethyl)benzoyl)-1H-pyrazolo[4,3-b]pyridin-3-yl)-1-methylcyclohex-3-enecarboxylic acid] | 170 |
| CC1C=C(c2nn(C(=O)c3c(Cl)cccc3C(F)(F)F)c3cccnc23)CCC1C(=O)O (stereo not drawn) [Example 1G, 4-(1-(2-chloro-6-(trifluoromethyl)benzoyl)-1H-pyrazolo[4,3-b]pyridin-3-yl)-2-methylcyclohex-3-enecarboxylic acid] | 182 |
| O=C(O)C1CC=C(c2nn(C(=O)c3c(Cl)cccc3C(F)(F)F)c3ccccc23)CC1 (stereo not drawn) [Example 1H, 4-(1-(2-chloro-6-(trifluoromethyl)benzoyl)-1H-indazol-3-yl)cyclohex-3-enecarboxylic acid] | 20 |
